Measured values published in ChEMBL document CHEMBL1123128, “(+/-)-2-Amino-3,4-dihydro-7-[2,3-dihydroxy-4-(hydroxymethyl)-1- cyclopentyl]-7H-pyrrolo[2,3-d]pyrimidin-4-ones: new carbocyclic analogues of 7-deazaguanosine with antiviral activity” (1985).
In brackets after ≈: the same amount, converted by molar mass.

System: Human alphaherpesvirus 1
Assay: The minimal inhibitory concentration required to inhibit HSV-1 virus in MRC5 cells
Assay type: functional

| SMILES | MIC [µg/mL] |
| --- | --- |
| Nc1nc(O)c2ccn([C@@H]3C[C@H](CO)[C@@H](O)[C@@H]3O)c2n1 | 25 (≈ 89.2 µM) |
| Nc1nc(O)c2ccn([C@@H]3C[C@H](CO)[C@H](O)[C@@H]3O)c2n1 | 100 (≈ 357 µM) |
